In the supplement of paper PMC4862054:

Assays:
Settings in all cases: incubation time: 72 h
MDA-MB-436 [1] = test: drug sensitivity score (DSS), CellTox Green (DSS (AUC-based score)); higher = stronger drug effect (viability inhibition or cytotoxicity); extreme values may be limits of the assay
Outline: (§1)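 Compound was dispensed into 384-well plates at 5 concentrations in 10-fold steps spanning a 10,000-fold range chosen for each compound, and 20 µl of breast cancer cell suspension was added before 72 h of incubation. CellTox Green fluorescence was read at 485/520 nm, followed by CellTiter-Glo luminescence after 10 min at room temperature. Values on each plate were normalised to 0.1 % DMSO and a positive kill control. The drug sensitivity score came from the area under the fitted dose-response curve.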

CAL-120 [2] = test: as above
Outline: as §1

CAL-51 [3] = test: as above
Outline: as §1

CAL-85-1 = test: drug sensitivity score (DSS), CellTiter-Glo (DSS (AUC-based score)); higher = stronger drug effect (viability inhibition or cytotoxicity); extreme values may be limits of the assay
Outline: as §1

MDA-MB-231 = test: as above
Outline: as §1

HCC1937 = test: as above
Outline: as §1

MDA-MB-436 [4] = test: as above
Outline: as §1

MFM-223 = test: as above
Outline: as §1

CAL-120 [5] = test: as above
Outline: as §1

HDQ-P1 = test: as above
Outline: as §1

CAL-148 = test: as above
Outline: as §1

DU-4475 = test: as above
Outline: as §1

MDA-MB-468 = test: as above
Outline: as §1

BT-474 = test: as above
Outline: as §1

HCC1143 = test: as above
Outline: as §1

BT-549 = test: as above
Outline: as §1

MCF-10A = test: as above
Outline: as §1

Hs578T = test: as above
Outline: as §1

MDA-MB-453 = test: as above
Outline: as §1

HCC1599 = test: as above
Outline: as §1

SK-BR-3 = test: as above
Outline: as §1

CAL-51 [6] = test: as above
Outline: as §1

Measured: drug sensitivity score

CC(=O)Nc1ccc(C(=O)Nc2ccccc2N)cc1 [Tacedinaline]
0: all assays above
